Experimental data: patent publication US11492348B2, “Tri-substituted aryl and heteroaryl derivatives as modulators of PI3-kinase and autophagy pathways” (Neuropore Therapies, Inc., priority 2018, dated 2022)
Where a name gives a salt, the structure may show the parent alone.

Tests used:
PI3Kα = PI3Kα (Homo sapiens (Human), UniProt P42336); test: Inhibition of PI3Kα (ADP-Glo kinase activity assay, ATP to ADP conversion); assay type: biochemical; details: 25 μM PIP2:PS, 60 μM ATP, 30 min reaction, luminescence
How it was run: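 Recombinant active PI3Kα (1.1 nM) in HEPES pH 7.5 buffer with 6 mM MgCl2 and 8 mM DTT was preincubated with compound for 0 or 3 h. The reaction ran for 30 min with 25 µM PIP2:PS and 60 µM ATP, and ADP formation was read by ADP-Glo luminescence. IC50 came from a 12-point, 1:3 series fitted with a 4-parameter model, bottom fixed to reference inhibitor controls and top floating.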

mTor kinase = mTor kinase (Homo sapiens (Human), UniProt P42345); test: mTor assay (33P-ATP filter-binding kinase assay); assay type: biochemical; details: 2 hours at room temperature
Protocol: The substrate was prepared in base reaction buffer (20 mM Hepes (pH 7.5), 10 mM MgCl2, 1 mM EGTA, 0.02% Brij35, 0.02 mg/ml BSA, 0.1 mM Na3VO4, 2 mM DTT, 1% DMSO), and required cofactors were added to the substrate solution. The mTor kinase was delivered into the substrate solution, and the solution was gently mixed. Testing compounds were dissolved in 100% DMSO to specific concentration. The serial dilution was conducted by Integra Viaflo Assist in DMSO. The compounds were delivered into the kinase reaction mixture by Acoustic technology (Echo550; nanoliter range), and the reaction mixture was incubated for 20 min at room temperature. Then, 33P-ATP (Specific activity 10 μCi/μl) was delivered into the reaction mixture to initiate the reaction. The reaction mixture was incubated for 2 hours at room temperature. Radioactivity was detected by a filter-binding method. Kinase activity data were expressed as the percent remaining kinase activity in test samples compared to vehicle (dimethyl sulfoxide) reactions. IC50 values and curve fits were obtained using Prism (GraphPad Software).

[1] = test system: (Ser-473) pAKT in B103 (Rat Neuroblastoma) cells; test: pAKT protocol: loss of (Ser-473) pAKT by AlphaScreen in insulin-stimulated B103 cells; assay type: cell-based; details: (Ser-473) pAKT/total AKT IC50, 2-hour pretreatment, 2.5 μg/mL insulin 20 minutes
Protocol: Inhibition of the PI3K-AKT-mTOR pathway was measured by quantifying the loss of (Ser-473) pAKT using AlphaScreen (Perkin Elmer). B103 (Rat Neuroblastoma) cells were seeded in serum containing medium (High Glucose DMEM (-Phenol Red)+10% FBS+2× Glutamax+1 mM Sodium Pyruvate+10 mM HEPES+1× Non-Essential Amino Acids+1× Pen/Strep) on a 96-well tissue culture treated plate and grown for 20 hours. Cells were then serum starved in serum free medium (High Glucose DMEM (-Phenol Red)+1× Glutamax+1 mM Sodium Pyruvate+1× Pen/Strep) for 6 hours prior to a 2-hour pretreatment with inhibitors of the pathway, including reference inhibitor LY294002. These inhibitors were prepared at a 200× final concentration as a 6-point, 1:3 serial dilution in DMSO series, with DMSO as the 7th point. The inhibitors were then diluted in experimental medium (High Glucose DMEM (-Phenol Red)+1× Glutamax+1 mM Sodium Pyruvate+1× Pen/Strep+25 mM HEPES+0.1% BSA) and combined with the cells at 1× final concentration in 0.5% DMSO. […] Cells were promptly lysed using Perkin Elmer proprietary lysis buffer and the (Ser-473) pAKT and total AKT contained in the lysate was measured by AlphaScreen. In AlphaScreen, donor beads were coated with streptavidin to capture one of the antibodies, which is biotinylated. Acceptor beads were coated with Protein A to immobilize the other antibody. In the presence of target protein, the two antibodies bring the donor and acceptor beads close together, generating signal. The amount of light emission is directly proportional to the amount of target protein present in the sample. For each inhibitor tested: the ratio of measured (Ser-473) pAKT/totalAKT was plotted in GraphPad Prism as a 7-point, non-linear regression, 4-parameter curve with bottom constrained to reference control bottom and unconstrained top anchored to DMSO.

Sequence of PI3Kα (P42336 whole entry): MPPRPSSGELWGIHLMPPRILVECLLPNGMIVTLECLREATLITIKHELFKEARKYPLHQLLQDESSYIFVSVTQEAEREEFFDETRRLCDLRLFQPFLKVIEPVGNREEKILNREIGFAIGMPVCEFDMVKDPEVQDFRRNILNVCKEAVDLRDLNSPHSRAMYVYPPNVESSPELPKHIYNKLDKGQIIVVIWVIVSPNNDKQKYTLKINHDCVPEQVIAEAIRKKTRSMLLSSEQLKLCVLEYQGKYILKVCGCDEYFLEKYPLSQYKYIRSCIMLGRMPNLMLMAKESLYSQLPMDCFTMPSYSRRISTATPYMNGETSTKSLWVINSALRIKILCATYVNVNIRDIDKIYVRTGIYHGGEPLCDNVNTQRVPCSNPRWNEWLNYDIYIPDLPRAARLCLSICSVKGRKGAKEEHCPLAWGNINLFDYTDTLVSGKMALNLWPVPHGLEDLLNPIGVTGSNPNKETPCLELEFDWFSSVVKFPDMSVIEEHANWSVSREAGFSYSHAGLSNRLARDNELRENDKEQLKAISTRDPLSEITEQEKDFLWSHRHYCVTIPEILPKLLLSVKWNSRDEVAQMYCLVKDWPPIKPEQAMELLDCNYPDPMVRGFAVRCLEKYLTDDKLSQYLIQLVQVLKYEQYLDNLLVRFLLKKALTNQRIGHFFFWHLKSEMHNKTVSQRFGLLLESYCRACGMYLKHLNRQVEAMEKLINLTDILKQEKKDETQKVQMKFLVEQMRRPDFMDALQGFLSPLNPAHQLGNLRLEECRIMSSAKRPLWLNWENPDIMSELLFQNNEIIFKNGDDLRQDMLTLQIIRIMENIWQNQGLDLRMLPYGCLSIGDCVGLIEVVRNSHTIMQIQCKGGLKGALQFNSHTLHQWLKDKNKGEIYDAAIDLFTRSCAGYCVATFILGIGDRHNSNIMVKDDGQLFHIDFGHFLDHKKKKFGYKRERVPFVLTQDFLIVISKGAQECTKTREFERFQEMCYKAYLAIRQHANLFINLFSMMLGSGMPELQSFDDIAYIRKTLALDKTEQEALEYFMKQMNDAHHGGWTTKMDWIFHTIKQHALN
Sequence of PI3Kα (P27986 whole entry partner): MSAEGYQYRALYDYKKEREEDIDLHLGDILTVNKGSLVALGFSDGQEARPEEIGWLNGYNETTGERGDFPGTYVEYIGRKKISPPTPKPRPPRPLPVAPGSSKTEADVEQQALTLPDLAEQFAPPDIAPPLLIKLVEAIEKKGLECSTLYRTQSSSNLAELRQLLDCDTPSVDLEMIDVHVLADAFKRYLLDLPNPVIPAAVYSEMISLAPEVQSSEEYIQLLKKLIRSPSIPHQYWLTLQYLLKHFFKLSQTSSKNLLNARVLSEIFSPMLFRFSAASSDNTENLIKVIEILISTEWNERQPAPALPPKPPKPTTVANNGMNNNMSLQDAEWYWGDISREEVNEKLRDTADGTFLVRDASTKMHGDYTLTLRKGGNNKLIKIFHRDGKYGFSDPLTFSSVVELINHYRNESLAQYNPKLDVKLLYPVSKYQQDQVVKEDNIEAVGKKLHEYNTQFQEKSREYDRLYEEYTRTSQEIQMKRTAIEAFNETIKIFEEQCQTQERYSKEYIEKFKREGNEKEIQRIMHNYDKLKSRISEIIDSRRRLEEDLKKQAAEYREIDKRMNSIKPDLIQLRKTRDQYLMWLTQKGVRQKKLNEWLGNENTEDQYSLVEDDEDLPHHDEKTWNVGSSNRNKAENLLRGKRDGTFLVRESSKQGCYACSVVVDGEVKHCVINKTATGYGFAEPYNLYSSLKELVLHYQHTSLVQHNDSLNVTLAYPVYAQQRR

| SMILES | IC50 (PI3Kα; read-out: PI3Ka IC50) | IC50 (mTor kinase) | IC50 [1] | PI3Ka IC50 (PI3Kα) |
| --- | --- | --- | --- | --- |
| COc1ccc(CS(=O)(=O)c2cc(-c3cnc(N)nc3)cc(N3CCOCC3)c2)cc1 [Compound 28, 5-(3-((4-methoxybenzyl)sulfonyl)-5-morpholinophenyl)pyrimidin-2-amine] | 0.37 µM | 7.9 µM | 13 µM |  |
| Nc1ncc(-c2cc(N3CCOCC3)cc(S(=O)(=O)Cc3ccc4[nH]ccc4c3)c2)cn1 [Compound 56, 5-(3-(((1H-indol-5-yl)methyl)sulfonyl)-5-morpholinophenyl)pyrimidin-2-amine] |  | 6.15 µM | 19.8 µM | 0.26 µM |
| N#Cc1ccc(S(=O)(=O)c2cc(-c3cnc(N)nc3C(F)(F)F)cc(N3CCOCC3)c2)cc1 [Compound 17, 4-((3-(2-amino-4-(trifluoromethyl)pyrimidin-5-yl)-5-morpholinophenyl)sulfonyl)benzonitrile] |  | 100 µM | 100 µM | 1.9 µM |
| Nc1ncc(-c2cc(Oc3ccccc3OC(F)(F)F)cc(N3CCOCC3)n2)cn1 [Compound 136, 5-(6-morpholino-4-(2-(trifluoromethoxy)phenoxy)pyridin-2-yl)pyrimidin-2-amine] |  | 2.06 µM | 1.51 µM | 0.37 µM |
| O=S(=O)(c1ccccc1)c1cc(-c2cnc(NC3CC3)nc2)cc(N2CCOCC2)c1 [Compound 20, N-cyclopropyl-5-(3-morpholino-5-(phenylsulfonyl)phenyl)pyrimidin-2-amine] |  | 10 µM | 100 µM | 2.7 µM |
| Nc1ncc(-c2cc(Oc3ccccc3)cc(N3CCOCC3)n2)cn1 [Compound 120, 5-(6-morpholino-4-phenoxypyridin-2-yl)pyrimidin-2-amine] |  | 0.48 µM | 0.64 µM | 0.091 µM |
| Nc1ncc(-c2cc(N3CCOCC3)cc(S(=O)(=O)c3c[nH]c4ccccc34)c2)cn1 [Compound 114, 5-(3-((1H-indol-3-yl)sulfonyl)-5-morpholinophenyl)pyrimidin-2-amine] |  |  | 15.3 µM | 2.4 µM |
| Nc1ncc(-c2cc(N3CCOCC3)cc(S(=O)(=O)c3ccccc3)n2)cn1 [Compound 117, 5-(4-morpholino-6-(phenylsulfonyl)pyridin-2-yl)pyrimidin-2-amine] |  |  | 17.3 µM | 3.3 µM |
| C=C(c1ccccc1)c1cc(-c2cnc(N)nc2)nc(N2CCOCC2)c1 [Compound 126, 5-(6-morpholino-4-(1-phenylvinyl)pyridin-2-yl)pyrimidin-2-amine] |  |  | 0.49 µM | 0.27 µM |
| Nc1ncc(-c2cc(N3CCOCC3)nc(S(=O)(=O)c3ccccc3)c2)cn1 [Compound 118, 5-(2-morpholino-6-(phenylsulfonyl)pyridin-4-yl)pyrimidin-2-amine] |  |  | 13.8 µM | 0.88 µM |
| NCCNc1ncc(-c2cc(N3CCOCC3)cc(S(=O)(=O)Cc3ccc(F)cc3)c2)cn1 [47 (as a HCl salt), N1-(5-(3-((4-fluorobenzyl)sulfonyl)-5-morpholinophenyl)pyrimidin-2-yl)ethane-1,2-diamine] |  |  | 2.18 µM | 1.2 µM |

Further lines, results first:

| IC50 (PI3Kα; read-out: PI3Ka IC50) | IC50 (mTor kinase) | IC50 [1] | PI3Ka IC50 (PI3Kα) | SMILES |
| --- | --- | --- | --- | --- |
|  | 4.33 µM | 3.7 µM | 0.067 µM | Nc1cc(Cl)c(-c2cc(N3CCOCC3)cc(S(=O)(=O)[C@@H]3CCOC3)c2)cn1 [Compound 107, (R)-4-chloro-5-(3-morpholino-5-((tetrahydrofuran-3-yl)sulfonyl)phenyl)pyridin-2-amine] |
|  | 0.54 µM | 1.65 µM | 0.11 µM | Nc1ncc(-c2cc(N3CCOCC3)cc(S(=O)(=O)[C@H]3CCOC3)c2)cn1 [Compound 53, (S)-5-(3-morpholino-5-((tetrahydrofuran-3-yl)sulfonyl)phenyl)pyrimidin-2-amine] |
|  | 2.58 µM | 7.33 µM | 0.18 µM | CC(=O)N1CCC(S(=O)(=O)c2cc(-c3cnc(N)nc3)cc(N3CCOCC3)c2)C1 (centres unmarked) [Compound 91, 1-(3-((3-(2-aminopyrimidin-5-yl)-5-morpholinophenyl)sulfonyl)pyrrolidin-1-yl)ethan-1-one] |
|  |  | 31.1 µM | 0.49 µM | Nc1ncc(-c2cc(N3CCOCC3)cc(S(=O)(=O)C3CCCCC3)c2)cn1 [Compound 49, 5-(3-(cyclohexylsulfonyl)-5-morpholinophenyl)pyrimidin-2-amine] |
|  |  | 3.19 µM | 0.10 µM | Nc1ncc(-c2cc(N3CCOCC3)cc(S(=O)(=O)C3CN(C(=O)C4CC4)C3)c2)cn1 [Compound 77, (3-((3-(2-aminopyrimidin-5-yl)-5-morpholinophenyl)sulfonyl)azetidin-1-yl)(cyclopropyl)methanone] |
|  |  | 5.64 µM | 0.30 µM | CC(C)C(=O)N1CC(S(=O)(=O)c2cc(-c3cnc(N)nc3)cc(N3CCOCC3)c2)C1 [Compound 76, 1-(3-((3-(2-aminopyrimidin-5-yl)-5-morpholinophenyl)sulfonyl)azetidin-1-yl)-2-methylpropan-1-one] |
|  |  | 11.2 µM | 9.1 µM | Nc1cc(C(F)(F)F)c(-c2cc(N3CCOCC3)cc(S(=O)(=O)[C@@H]3CCOC3)c2)cn1 [Compound 71, (R)-5-(3-morpholino-5-((tetrahydrofuran-3-yl)sulfonyl)phenyl)-4-(trifluoromethyl)pyridin-2-amine] |
|  |  | 4.72 µM | 0.69 µM | CNc1ccc(-c2cc(N3CCOCC3)cc(S(=O)(=O)[C@@H]3CCOC3)c2)cn1 [Compound 108, (R)-N-methyl-5-(3-morpholino-5-((tetrahydrofuran-3-yl)sulfonyl)phenyl)pyridin-2-amine] |
|  |  | 48.2 µM | 1.6 µM | Nc1ncc(-c2cc(N3CCOCC3)cc(S(=O)(=O)[C@@H]3CCOC3)c2)cc1C(F)(F)F [Compound 100, (R)-5-(3-morpholino-5-((tetrahydrofuran-3-yl)sulfonyl)phenyl)-3-(trifluoromethyl)pyridin-2-amine] |
|  |  | 6.79 µM | 0.54 µM | O=C(C1CC1)N1CC(S(=O)(=O)c2cc(-c3cnc(NC4CC4)nc3)cc(N3CCOCC3)c2)C1 [Compound 102, cyclopropyl(3-((3-(2-(cyclopropylamino)pyrimidin-5-yl)-5-morpholinophenyl)sulfonyl)azetidin-1-yl)methanone] |
|  |  | 19.8 µM | 0.11 µM | COCNC(=O)N1CC(S(=O)(=O)c2cc(-c3cnc(N)nc3)cc(N3CCOCC3)c2)C1 [Compound 94, 3-((3-(2-aminopyrimidin-5-yl)-5-morpholinophenyl)sulfonyl)-N-(methoxymethyl)azetidine-1-carboxamide] |
|  |  | 26.4 µM | 0.062 µM | NC(=O)N1CC(S(=O)(=O)c2cc(-c3cnc(N)nc3)cc(N3CCOCC3)c2)C1 [Compound 81, 3-((3-(2-aminopyrimidin-5-yl)-5-morpholinophenyl)sulfonyl)azetidine-1-carboxamide] |
|  |  | 5.19 µM | 0.12 µM | CN(C)C(=O)N1CC(S(=O)(=O)c2cc(-c3cnc(N)nc3)cc(N3CCOCC3)c2)C1 [Compound 95, 3-((3-(2-aminopyrimidin-5-yl)-5-morpholinophenyl)sulfonyl)-N,N-dimethylazetidine-1-carboxamide] |
|  |  | 22.3 µM | 2.3 µM | Nc1ncc(-c2cc(N3CCOCC3)cc(S(=O)(=O)c3ccc4ccoc4c3)c2)cn1 [Compound 112, 5-(3-(benzofuran-6-ylsulfonyl)-5-morpholinophenyl)pyrimidin-2-amine] |
